Measured values taken from PMC6934184, “Selective DNA-PKcs inhibition extends the therapeutic index of localized radiotherapy and chemotherapy” (The Journal of Clinical Investigation, 2019).

Biological target: T1, ABL2 (Arg) (Homo sapiens, UniProt P42684)
T1 construct: purchased Thermo Fisher Scientific (Life Technologies) SelectScreen
Experiment: SelectScreen Z'LYTE
Assay type: biochemical
Summary of the method: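 Compound tested in SelectScreen activity assays, Z'LYTE for CSF1R, CDK1/cyclin B and MAP2K6 and Adapta for CAMK1. ATP for CAMK1 was listed as 10, and Km app was used for CSF1R. Results are expressed in percent.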

T1 sequence (P42684 whole entry): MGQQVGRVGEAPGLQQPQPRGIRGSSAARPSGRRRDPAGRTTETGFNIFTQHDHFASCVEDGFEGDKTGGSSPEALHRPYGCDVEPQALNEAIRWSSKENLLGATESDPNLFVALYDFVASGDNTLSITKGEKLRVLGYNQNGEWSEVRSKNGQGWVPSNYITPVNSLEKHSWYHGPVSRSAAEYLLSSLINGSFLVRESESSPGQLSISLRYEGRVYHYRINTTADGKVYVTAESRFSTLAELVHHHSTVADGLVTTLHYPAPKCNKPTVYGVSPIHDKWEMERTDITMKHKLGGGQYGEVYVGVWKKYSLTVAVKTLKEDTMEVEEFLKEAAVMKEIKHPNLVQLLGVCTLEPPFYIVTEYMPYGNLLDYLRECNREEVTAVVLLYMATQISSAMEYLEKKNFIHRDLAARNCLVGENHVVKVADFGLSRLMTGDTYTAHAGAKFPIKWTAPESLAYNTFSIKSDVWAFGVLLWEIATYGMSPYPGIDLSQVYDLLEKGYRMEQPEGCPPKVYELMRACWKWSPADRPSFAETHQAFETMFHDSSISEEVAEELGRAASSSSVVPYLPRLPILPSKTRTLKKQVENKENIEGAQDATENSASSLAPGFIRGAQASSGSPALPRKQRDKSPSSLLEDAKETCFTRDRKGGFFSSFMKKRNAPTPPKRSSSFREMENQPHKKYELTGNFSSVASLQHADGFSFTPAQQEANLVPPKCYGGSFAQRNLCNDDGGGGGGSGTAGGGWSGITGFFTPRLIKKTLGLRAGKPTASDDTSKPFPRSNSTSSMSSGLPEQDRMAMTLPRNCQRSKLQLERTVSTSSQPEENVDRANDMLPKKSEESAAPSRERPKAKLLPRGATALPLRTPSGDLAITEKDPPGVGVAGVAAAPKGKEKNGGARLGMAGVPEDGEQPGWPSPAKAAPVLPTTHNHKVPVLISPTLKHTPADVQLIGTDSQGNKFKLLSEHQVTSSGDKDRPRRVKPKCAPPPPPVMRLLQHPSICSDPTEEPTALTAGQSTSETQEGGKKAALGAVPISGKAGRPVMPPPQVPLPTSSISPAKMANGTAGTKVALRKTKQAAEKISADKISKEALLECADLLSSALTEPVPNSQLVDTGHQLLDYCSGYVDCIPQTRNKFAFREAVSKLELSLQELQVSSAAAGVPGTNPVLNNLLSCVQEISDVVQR

## CN(C(=O)CN1CCOCC1)c1ccc2sc3c(-c4cccc5c(=O)cc(N6CC7CCC(C6)O7)oc45)cccc3c2c1 [NU5455]
  inhibition at 1 µM: -10.3%
